Reference: patent US20250270648A1, “MOLECULAR SIGNATURE FOR ASSESSING THE RESPONSIVENESS OF CANCER TO MITOCHONDRIA-TARGETED ANTIOXIDANTS” (UNIVERSITÉ CATHOLIQUE DE LOUVAIN, priority 2021, published 2025)

What was measured:
MMTV-PyMT mice = assay: Spontaneous metastatic breast cancer, FEC ±MitoQ; assay type: in vivo, mouse; settings: 6 weeks
Source text: Female FVB/N-Tg(MMTV-PyMT)634Mul/J (MMTV-PyMT) mice that express the polyomavirus middle T antigen spontaneously develop orthotropic multifocal breast adenocarcinomas that spontaneously disseminate metastases to the lungs during mouse lifetime. For spontaneous metastasis assays, female MMTV-PyMT mice (The Jackson Laboratory) were daily observed for signs of spontaneous primary tumors starting at 6 weeks of age. Once tumors became palpable, 4 additional weeks were waited to mimic a clinical time frame between first tumor signs and treatment initiation. Ten weeks-old mice with primary tumors of ˜0.8 cm in diameter received a single dose of FEC chemotherapy (100 mg/Kg 5-FU, 5 mg/Kg epirubicin, 100 mg/Kg cyclophosphamide), a clinically relevant neoadjuvant or adjuvant chemotherapeutic combination. Animals were then randomly assigned to a group receiving daily 18 mg/Kg MitoQ or an equal volume of vehicle by oral gavage. They were sacrificed at 16 weeks-old, and the lungs insufflated with Indian ink for metastasis quantification as described above. Primary tumors were collected, weighted, and processed for RT-qPCR.

SkBr3 cells = assay: Clonogenic assay, adherent; assay type: cell-based, human; settings: MitoQ 100 nM, 48 h
Experimental: (§1) For adherent assays, MDA-MB-231 and SKBR3 cells were pre-treated for 48 h±MitoQ, and seeded (1,000 to 2,000 cells/well) in 6-well plates. After colony formation (2 weeks), cells were fixed and stained with 0.5% crystal violet in a 10% ethanol solution, for 30 min. Colonies were washed with water and counted. Results are expressed as surviving fraction (SF), where […].

MDA-MB-231 cells = assay: Clonogenic assay, adherent; assay type: cell-based, human; settings: MitoQ 100 nM, 48 h
Experimental: as §1

4T1 cells = assay: Invasion, Matrigel-coated transwells; assay type: cell-based, mouse; settings: 0.1 μg/mL DXR + 100 nM MitoQ
Experimental: Previous to migration and invasion assays, cells were pretreated with the indicated amounts of drugs for 16 h, and left to recover for 6 h in full culture medium. Migration assays were performed in a NeuroProbe® standard 48-well chemotaxis chamber according to manufacturer's instructions. Briefly, the bottom chamber was filled with DMEM containing 0.5% serum as a chemo-attractant. Fifty thousand cells were seeded in the upper chamber in the same medium but without serum ±MitoQ where indicated, and allowed to migrate overnight through an 8-μm pore-size polycarbonate membrane. A similar stimulation protocol was used for invasion assays, with the difference of using Matrigel-coated transwells (Corning®). With MCF7 cells, membranes were previously incubated for 30 min with a solution of Vitronectin 10 μg/ml (Sigma-Aldrich®, #SRP3186). Migrated/invaded cells were fixed and stained with 100 μl of a 0.23% crystal violet solution (Sigma-Aldrich®, #C0775) for 10 min before counting on a SpectraMax™ i3 spectrophotometer equipped with a MiniMax imaging cytometer, using the SoftMax Pro software. Data were normalized to vehicle-treated cells (control).

[1] = tested on: MDA-MB-231 primary tumors in mice; assay: RT-qPCR of resected primary tumors; assay type: in vivo, mouse; settings: MitoQ 20 mg/kg daily oral
Experimental: Total mRNA from MDA-MB-231, SkBr3 and MDA-MB-436 cells treated ±MitoQ for 48 h was extracted using the NucleoSpin RNA Kit (Macherey-Nagel®). Total mRNA from primary tumors was extracted with Tri reagent (Molecular Research Center®, Cat #TR118). mRNAs were quantified by the Qubit BR dsRNA assay kit (Thermo Fisher Scientific®), and mRNA integrity was evaluated on an Agilent® 2100 Bioanalyzer with the RNA 6000 nano kit (Agilent®). It was reverse transcribed in complementary DNA using the High-Capacity cDNA Reverse Transcription Kit (Applied Biosystems®, cat #4368814) according to manufacturer's protocol. Complementary DNA (500 ng) was amplified by real time quantitative PCR (RT-qPCR) using the low ROX SYBR Master Mix dTTP Blue (Eurogentec®) and primers listed in Table 5 and Table 6 on a ViiA 7 Real-Time PCR System (Thermo Fisher Scientific®). Gene expression was normalized to β-actin gene expression.
For spontaneous metastasis assays using human breast cancer cells, MDA-MB-231, SkBr3 or MDA-MB-436 cells were prepared in medium containing 10% growth factor-reduced Matrigel (Corning®, cat #734-11-01). Five weeks-old female Rj:NMRI-Foxnlnu/nu mice (Janvier) were injected with 10^6 cancer cells in 100 μL of solution in the left second mammary fat pad. After tumor take (72 h), mice were daily treated ±20 mg/Kg MitoQ by oral gavage. Tumor size was measured once per week with an electronic caliper. Four weeks after treatment initiation, primary tumors were surgically removed and processed for RT-qPCR. Tumor recurrence was monitored until recurred tumors in the vehicle group reached about […], i.e. 24 days after surgery. At this time point, mice were sacrificed and their lungs collected and fixed in PFA 4% for immunocytochemistry.

[2] = tested on: MDA-MB-231 human breast cancer cells; assay: Metastatic take assay, tail vein injection of pretreated cells; assay type: in vivo, mouse; settings: cells pretreated 6 h with 1 μM MitoQ
Experimental: For metastasis take assays, cancer cells were pretreated ±MitoQ for 6 h, and 10^6 viable cells were injected into the tail vein of five weeks-old female Rj:NMRI-Foxn1nu/nu mice (Janvier). After 4 weeks, mice were sacrificed and the lungs insufflated with 3 mL of Indian ink (15% in ddH2O). Mouse lungs were removed, washed with PBS and incubated overnight in Fekete's solution (700 mL/L 100% ethanol, 32 mL/L 37% formalin, 40 mL/L glacial acetic acid, diluted in ddH2O). The next morning, lungs were transferred to a 70% ethanol solution and were further examined under a Stemi 2000-C dissection stereomicroscope (Zeiss®) to count the number of metastasis per lung.

COC1=C(OC)C(=O)C(CCCCCCCCCC[P+](c2ccccc2)(c2ccccc2)c2ccccc2)=C(C)C1=O [MitoQ]
number of surface lung metastases (MMTV-PyMT mice; FEC + MitoQ 18 mg/kg daily oral vs FEC + vehicle): significantly repressed | total primary tumor weight (MMTV-PyMT mice; FEC + MitoQ 18 mg/kg daily oral vs FEC + vehicle, P=0.1395): not altered | mice metastasis-free (MMTV-PyMT mice; FEC + MitoQ 18 mg/kg daily oral, all 15 FEC+ control mice had metastases): 4 of 21 | clonogenicity in Petri dishes allowing adhesion (SkBr3 cells): largely inhibited | clonogenicity in Petri dishes allowing adhesion (MDA-MB-231 cells): largely inhibited | DXR-stimulated cell invasion (4T1 cells): inhibited | tumor samples in which PSAT1 expression was induced [1]: 100% | PHGDH-1 transcript upregulated in response to MitoQ: Validated in vivo ([1]; tumors resected day +32): + (Repressed or induced by ≥2-fold with P < 0.01 and MDA-MB-231 primary tumors in mice.) | PSAT1 transcript upregulated in response to MitoQ: Validated in vivo ([1]; tumors resected day +32): + (Repressed or induced by ≥2-fold with P < 0.01 and MDA-MB-231 primary tumors in mice.) | SERPINE1 transcript upregulated in response to MitoQ: Validated in vivo ([1]; tumors resected day +32): + (Repressed or induced by ≥2-fold with P < 0.01 and MDA-MB-231 primary tumors in mice.) | SLC7A11 transcript upregulated in response to MitoQ: Validated in vivo ([1]; tumors resected day +32): + (Repressed or induced by ≥2-fold with P < 0.01 and MDA-MB-231 primary tumors in mice.) | TXNRD1 transcript upregulated in response to MitoQ: Validated in vivo ([1]; tumors resected day +32): + (Repressed or induced by ≥2-fold with P < 0.01 and MDA-MB-231 primary tumors in mice.) | fold induction at 20 mg/kg ([1]; Mus musculus, MDA-MB-231, P<0.01, read-out: fold induction of PHGDH-1, SLC7A11, SERPINE1, TXNRD1 and PSAT1 (each independently)): ≥ 2 | mice metastasis-free ([2]; at necropsy, four weeks): 36.4% | mice with <2 metastasis ([2]; at necropsy, four weeks): 27.2% | mice with >2 lung metastases ([2]; at necropsy, four weeks): 36.4% | metastasis developed vs mice that received vehicle-treated cells ([2]; four weeks after injection of 10^6 cells): significantly less
